# Results: patent US20260315410A1, “COMBINATION FOR ENHANCING BONE GROWTH AND/OR BONE STRENGTH” (SOCIÉTÉ DES PRODUITS NESTLÉ S.A., priority 2023, published 2026)
# Assays:
# [1] = system: pre-osteoblastic cell line MC3T3-E1 subclone 4; assay: Osteoblast alkaline phosphatase (ALP) activity; format: cell-based; conditions: 7 days of differentiation, without ascorbic acid; MK-7 3 μM, VitD 1 nM, VitA 100 nM (FIG. 1A)
# Source text: (§1) The pre-osteoblastic cell line MC3T3-E1 subclone 4 (CRL-2593) was purchased from ATCC (Manassas; Virginia, USA). Cells were maintained in growth medium (GM) composed of ascorbic acid-free aMEM (ThermoFisher Scientific), supplemented with 10% fetal calf serum (FCS, ThermoFisher Scientific) and 1% penicillin/streptomycin. All culture media were refreshed every 2-3 days. Cells were passaged with trypsin/EDTA solution at less than 80% confluence. To induce differentiation into osteoblasts, cells were seeded at 5×10^4 cells/cm^2 and grown to confluency in GM for 24 h. Then, the medium was switched to differentiation medium (DM) composed of GM supplemented with 10 mM β-glycerophosphate and treatment solutions of interest. Ascorbic acid 50 μg/ml was also added to the DM depending on the experiment.
# MC3T3-E1 subclone 4 cells were differentiated for 7 days without ascorbic acid, except for the positive control, and with the following treatment solutions: a mix composed of 3μM of vit.K2 (menaquinone-7), 100 nM of vit.A (all-trans-retinoic acid) and 1 nM of vit.D (1a,25-Dihydroxyvitamin D3); a mix called “SCFA20” composed of 15 μM of sodium acetate, 4 μM of sodium propionate and 1 μM of sodium butyrate; a mix called “SCFA50” composed of 37.5 μM of sodium acetate, 10 μM of sodium propionate and 2.5 μM of sodium butyrate; a mix called “SCFA60” composed of 45 μM of sodium acetate, 12 μM of sodium propionate and 3 μM of sodium butyrate. The vitamin mix was also combined to the 3 different combinations of short-chain fatty acids (SCFA).
# After 7 days of differentiation, cells were then collected for alkaline phosphatase (ALP) activity measurement as described previously with minor modifications. […] Enzymatic reaction was monitored at 405 nm after 4-Nitrophenyl phosphate disodium salt hexahydrate addition. Michaelis-Menten kinetics were evaluated at 30° C. for 30 min. […] The activity value was normalized by protein content measured via the Pierce BCA Protein Assay Kit (ThermoFisher Scientific) according to the manufacturer's instructions.
# osteocalcin = assay: Osteocalcin mRNA levels (qPCR) in pre-osteoblastic cell line MC3T3-E1 subclone 4; format: cell-based; conditions: 21 days of differentiation, without ascorbic acid; MK-7 3 μM, VitD 1 nM, VitA 100 nM (FIG. 1B)
# Source text: as §1
# MC3T3-E1 subclone 4 cells were differentiated for 21 days (in DM without ascorbic acid except for the positive control) or 28 days (in DM containing ascorbic acid). Cells were then collected for gene expression analysis. […] RNA concentrations were measured using the DropSense96 (TRINEAN, Gentbrugge, Belgium).
# CDNAs were synthetized using High-Capacity cDNA Reverse Transcription Kit (AppliedBiosystems; Waltham, Massachusetts, USA) according to the manufacturer's instructions. […] The relative gene expression was evaluated via the 2^-ΔCt method.
Compound,ALP activity (marker of osteoblast differentiation) [1],Osteocalcin mRNA levels (osteocalcin)
"CC1=C(/C=C/C(C)=C/C=C/C(C)=C/C(=O)O)C(C)(C)CCC1 [vitamin A, all-trans-retinoic acid]",significant effect,no significant effect
"CC(C)=CCC/C(C)=C/CC/C(C)=C/CC/C(C)=C/CC/C(C)=C/CC/C(C)=C/CC/C(C)=C/CC1=C(C)C(=O)c2ccccc2C1=O [vitamin K2, menaquinone-7]",no significant effect,
"C=C1/C(=C\C=C2/CCC[C@]3(C)[C@@H]([C@H](C)CCCC(C)(C)O)CC[C@@H]23)C[C@@H](O)C[C@@H]1O [vitamin D, 1α,25-Dihydroxyvitamin D3]",significant effect,no significant effect
